≈ marks a conversion by molar mass, not a printed value.
Legend:
Caco-2 cell monolayer = assay: Caco-2 Permeation Assay; assay type: in vitro ADME; settings: Papp, 5 μM compound; for Cacoverap Kp 10^−6 cm/sec: A→B in the presence of 25 μM verapamil (P-gp inhibitor); for Caco Kp 10^−6 cm/sec: apical to basal (A→B)
In short: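 Compound at 5 μM, in duplicate, crosses Caco-2 monolayers apical to basal over 120 min at 37 °C. This is run with and without 25 μM verapamil to test for P-gp efflux. Samples are quantified by LC-MS/MS, and Papp in cm/sec is calculated as dQ/(dt × area × concentration).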

Aqueous Solubility Assay = settings: PBS buffer pH 7.4; maximum upper limit 1,000 μM
Procedure: Assay 5: Aqueous Solubility Assay
The purpose of this assay was to quantify the solubility of test compounds in pH 4 and pH 7.4 PBS buffers. The assay required 40 μL of 10 mM DMSO test compound solution per desired buffer in addition to 20 μL required to make a test standard. For example, to test a compound in both buffers, 100 μL (2*40 μL+20 μL) of 10 mM DMSO compound stock solution was required.
The standard was created by diluting 20 μL of 10 mM DMSO compound stock solution into 180 μL of methanol and was shaken for five minutes to ensure solution uniformity. […] This 1,000 μM solution was run on an Agilent 1260 LC-MS system by injecting 2 μL in order to obtain the peak area. For the test solutions, 40 μL of 10 mM DMSO compound stock solution, per PBS buffer condition, were dried down into a powder overnight. Once in powder form, 400 μL of the desired PBS buffer was added to the powder and allowed to shake vigorously for four hours. The maximum theoretical concentration for this sample solution was 1,000 μM. After four hours of shaking, the samples were centrifuged for 10 minutes at 3,000 RPM before injecting 2 μL on the same Agilent 1260 LC-MS system to obtain the peak area.
In Table 6 below, A represents a value above 500, B represents a value between 250 and 500, C represents a value between 50 and 250, D represents a value between 10 and 50, and E represents a value below 10.

physchem = settings: thermodynamic from solid
Procedure: Assay 6: Solubility Assay in Organic Excipients
The purpose of this assay was to quantify the solubility of test compounds in different organic excipients such as diisopropyl adipate, medium chain triglycerides (MCT), propylene glycol, and polyethylene glycol. The assay required 80 μL of 100 mM DMSO test compound solution per desired excipient in addition to 40 μL required to make a test standard.
The standard was created by diluting 40 μL of 100 mM DMSO compound stock solution into 160 μL of methanol and was shaken for five minutes to ensure solution uniformity. […] This 20,000 μM solution was run on an Agilent 1260 LC-MS system by injecting 0.2 μL in order to obtain the peak area. For the test solutions, 80 μL of 100 mM DMSO compound stock solution, per excipient, were dried down into a powder overnight. Once in powder form, 400 μL of the desired excipient was added to the powder and allowed to shake vigorously for four hours. The maximum theoretical concentration for this sample solution was 20,000 μM. After four hours of shaking, the samples were centrifuged for 10 minutes at 3,000 RPM before injecting 0.2 μL on the same Agilent 1260 LC-MS system to obtain the peak area.

| Structure (SMILES) | Cacoverap Kp 10^−6 cm/sec (Caco-2 cell monolayer) | Caco Kp 10^−6 cm/sec (Caco-2 cell monolayer) | Solubility at PH 7.4 (μmol) (Aqueous Solubility Assay) | solubility at 4 h (physchem; oil or lipid, Solubility in MCT (mg/mL)) | solubility at 4 h (physchem; organic solvent or mixture, Solubility in Diisopropyl adipate (mg/mL)) | solubility at 4 h (physchem; organic solvent or mixture, Solubility in PEG400 (mg/mL)) | solubility at 4 h (physchem; organic solvent or mixture, Solubility in Propylene glycol (mg/mL)) |
| --- | --- | --- | --- | --- | --- | --- | --- |
| CCS(=O)(=O)N1[C@@H]2CCC[C@H]1C[C@H](N(C)c1nc(COC3COC3)c(F)c(Nc3cc(C)[nH]n3)n1)C2 [Compound 41, N2-((1R,3s,5S)-9-(ethylsulfonyl)-9-azabicyclo[3.3.1]nonan-3-yl)-5-fluoro-N2-methyl-N4-(5-methyl-1H-pyrazol-3-yl)-6-((oxetan-3-yloxy)methyl)pyrimidine-2,4-diamine] | A (A represents a value above 35×10^−6 cm/sec) | A (A represents a value above 30×10^−6 cm/sec) | D (D represents a value between 10 and 50) |  |  |  |  |
| COC(=O)N1[C@@H]2CCC[C@H]1C[C@H](N(C)c1nc(Nc3cc(C)[nH]n3)cc(O[C@@H]3CCOC3)n1)C2 [Compound 23] | B (B represents a value between 20×10^−6 and 35×10^−6 cm/sec) | A (A represents a value above 30×10^−6 cm/sec) |  | 5000 to 10000 µg/mL (≈ 10.6 to 21.2 mM) | > 10000 µg/mL | 5000 to 10000 µg/mL (≈ 10.6 to 21.2 mM) | > 10000 µg/mL |
| CCS(=O)(=O)N1[C@@H]2CCC[C@H]1C[C@H](N(C)c1nc(CO[C@@H]3CCOC3)c(F)c(Nc3cc(C)[nH]n3)n1)C2 [Compound 43, N2-((1R,3s,5S)-9-(ethylsulfonyl)-9-azabicyclo[3.3.1]nonan-3-yl)-5-fluoro-N2-methyl-N4-(5-methyl-1H-pyrazol-3-yl)-6-((((R)-tetrahydrofuran-3-yl)oxy)methyl)pyrimidine-2,4-diamine] |  | A (A represents a value above 30×10^−6 cm/sec) | B (B represents a value between 250 and 500) |  |  |  |  |
| CCS(=O)(=O)N1[C@@H]2CCC[C@H]1C[C@H](N(C)c1nc(CO[C@H]3CCOC3)c(F)c(Nc3cc(C)[nH]n3)n1)C2 [Compound 42, N2-((1R,3s,5S)-9-(ethylsulfonyl)-9-azabicyclo[3.3.1]nonan-3-yl)-5-fluoro-N2-methyl-N4-(5-methyl-1H-pyrazol-3-yl)-6-((((S)-tetrahydrofuran-3-yl)oxy)methyl)pyrimidine-2,4-diamine] |  | A (A represents a value above 30×10^−6 cm/sec) | B (B represents a value between 250 and 500) |  |  |  |  |
| CCS(=O)(=O)N1[C@@H]2CCC[C@H]1C[C@H](N(C)c1nc(Nc3cc(C)[nH]n3)cc(C3CCCO3)n1)C2 (stereo partly drawn) [Compound 8, N^2-((1R,3s,5S)-9-(ethylsulfonyl)-9-azabicyclo[3.3.1]nonan-3-yl)-N2-methyl-N4-(5-methyl-1H-pyrazol-3-yl)-6-(tetrahydrofuran-2-yl)pyrimidine-2,4-diamine] | A (A represents a value above 35×10^−6 cm/sec) | A (A represents a value above 30×10^−6 cm/sec) | C (C represents a value between 50 and 250) |  |  |  |  |

Source: patent publication US11439641B2, “Pyrimidine JAK inhibitors for the treatment of skin diseases” (THERAVANCE BIOPHARMA R&D IP, LLC, priority 2019, dated 2022)
